The values below come from patent US20220323406A1, “METHODS AND COMPOSITIONS FOR DIFFERENTIATING STEM CELLS” (Massachusetts Institute of Technology, priority 2019, published 2022).

The test system of assay [1] is ENR+CD organoids (ISC to Paneth cell differentiation). Description: Primary screen: basal (non-stimulated) lysozyme secretion LYZ.NS, 2.5-D 384-well ENR+CD organoid differentiation. The format is cell-based, mouse. The conditions noted are these: primary screen; for Z.LYZ.NS: standard z score; for Dose.FC.LYZ.NS: FC vs plate median. The source says:
(§1) High-throughput screening.

Assay [2] has the same test system. Description: Primary screen: CCh-stimulated lysozyme secretion LYZ.S, 2.5-D 384-well ENR+CD organoid differentiation. The format is cell-based, mouse. The note with it: primary screen; for Dose.FC.LYZ.S: FC vs plate median.
Excerpt: as §1

Another assay has as its system ENR+CD organoids. Description: Primary screen: ATP (CellTiter-Glo 3D, CTG) cell number/viability, 2.5-D 384-well ENR+CD organoids.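 For all read-outs here: compounds given at plating and again on day 3 over a 6-day differentiation from ENR+CV stem-cell-enriched precursors, ATP measured on day 6, plate median as control.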 The note with it: primary screen; for Z.CTG: standard z score; for Dose.FC.CTG: FC vs plate median. (In ATP-based viability assays light output follows the ATP content of the culture.)

Where a name gives a salt, the structure may show the parent alone.

For the compound `CCCC(=O)Nc1cccc(NC(=O)c2ccccc2Br)c1` [ML161], the Z.LYZ.NS in assay [1] (dose 0.08 uM) is reported as 0.158; in assay [1] (dose 0.40 uM) it was −0.237; in assay [1] (dose 2.00 uM), 0.323; in assay [1] (dose 10.00 uM), −0.494. The Dose.FC.LYZ.NS is listed as 0.018 log2 fold change in assay [1] (dose 0.08 uM), −0.027 log2 fold change in assay [1] (dose 0.40 uM), 0.037 log2 fold change in assay [1] (dose 2.00 uM) and −0.057 log2 fold change in assay [1] (dose 10.00 uM). Moreover, the Dose.FC.LYZ.S in assay [2] (dose 0.08 uM) is 0.017 log2 fold change; in assay [2] (dose 0.40 uM), −0.027 log2 fold change; in assay [2] (dose 2.00 uM) it was 0.024 log2 fold change; in assay [2] (dose 10.00 uM), −0.066 log2 fold change. The Z.CTG with ENR+CD organoids (dose 0.08 uM) is 0.205; in the assay on ENR+CD organoids (dose 0.40 uM), 0.067; in the assay on ENR+CD organoids (dose 2.00 uM), 0.157; in the assay with ENR+CD organoids (dose 10.00 uM), −0.084. Further, the Dose.FC.CTG is 0.086 log2 fold change with ENR+CD organoids (dose 0.08 uM), 0.028 log2 fold change with ENR+CD organoids (dose 0.40 uM), 0.066 log2 fold change in the assay with ENR+CD organoids (dose 2.00 uM) and −0.035 log2 fold change in the assay on ENR+CD organoids (dose 10.00 uM).
Consider `COc1ccc(-c2cnc3c(-c4cccc5ncccc45)cnn3c2)cc1` [ML347], for which the Z.LYZ.NS in assay [1] (dose 0.08 uM) is 1.079; in assay [1] (dose 0.40 uM), 1.150; in assay [1] (dose 2.00 uM), 0.600; in assay [1] (dose 10.00 uM), −1.078. Further, the Dose.FC.LYZ.NS was 0.124 log2 fold change in assay [1] (dose 0.08 uM), 0.132 log2 fold change in assay [1] (dose 0.40 uM), 0.069 log2 fold change in assay [1] (dose 2.00 uM) and −0.124 log2 fold change in assay [1] (dose 10.00 uM). The Dose.FC.LYZ.S in assay [2] (dose 0.08 uM) is on record as 0.094 log2 fold change; in assay [2] (dose 0.40 uM), 0.111 log2 fold change; in assay [2] (dose 2.00 uM) it was 0.072 log2 fold change; in assay [2] (dose 10.00 uM), −0.202 log2 fold change. Besides, the Z.CTG in the assay with ENR+CD organoids (dose 0.08 uM) is 0.439; in the assay with ENR+CD organoids (dose 0.40 uM), 0.500; in the assay with ENR+CD organoids (dose 2.00 uM) it was 0.328; with ENR+CD organoids (dose 10.00 uM), −0.404. Also, the Dose.FC.CTG with ENR+CD organoids (dose 0.08 uM) is 0.184 log2 fold change; with ENR+CD organoids (dose 0.40 uM), 0.209 log2 fold change; in the assay on ENR+CD organoids (dose 2.00 uM), 0.137 log2 fold change; in the assay on ENR+CD organoids (dose 10.00 uM), −0.169 log2 fold change.
As to `CC(C)C[C@H](NC(=O)CNC(=O)c1cc(Cl)ccc1Cl)B(O)O` [MLN2238], the Z.LYZ.NS in assay [1] (dose 0.08 uM) is listed as −2.358; in assay [1] (dose 0.40 uM) it was −2.477; in assay [1] (dose 2.00 uM) it was −2.166; in assay [1] (dose 10.00 uM), −2.597. The Dose.FC.LYZ.NS in assay [1] (dose 0.08 uM) is recorded as −0.271 log2 fold change; in assay [1] (dose 0.40 uM) it was −0.284 log2 fold change; in assay [1] (dose 2.00 uM) it was −0.249 log2 fold change; in assay [1] (dose 10.00 uM), −0.298 log2 fold change. In addition, the Dose.FC.LYZ.S is reported as −0.383 log2 fold change in assay [2] (dose 0.08 uM), −0.358 log2 fold change in assay [2] (dose 0.40 uM), −0.353 log2 fold change in assay [2] (dose 2.00 uM) and −0.370 log2 fold change in assay [2] (dose 10.00 uM). Also, the Dose.FC.CTG in the assay on ENR+CD organoids (dose 0.08 uM) is listed as −1.655 log2 fold change; in the assay with ENR+CD organoids (dose 0.40 uM), −1.104 log2 fold change; in the assay with ENR+CD organoids (dose 2.00 uM), −1.233 log2 fold change; with ENR+CD organoids (dose 10.00 uM) it was −1.761 log2 fold change.
`O=C(O)c1ccc(Nc2ncc3c(n2)-c2ccc(Cl)cc2C(c2c(F)cccc2F)=NC3)cc1` [MLN8054]: the Z.LYZ.NS in assay [1] (dose 0.08 uM) is 0.574; in assay [1] (dose 0.40 uM), 0.066; in assay [1] (dose 2.00 uM) it was −0.868; in assay [1] (dose 10.00 uM), −0.979. In addition, the Dose.FC.LYZ.NS is 0.066 log2 fold change in assay [1] (dose 0.08 uM), 0.008 log2 fold change in assay [1] (dose 0.40 uM), −0.100 log2 fold change in assay [1] (dose 2.00 uM) and −0.112 log2 fold change in assay [1] (dose 10.00 uM). Further, the Dose.FC.LYZ.S in assay [2] (dose 0.08 uM) is recorded as 0.042 log2 fold change; in assay [2] (dose 0.40 uM) it was 0.167 log2 fold change; in assay [2] (dose 2.00 uM), −0.087 log2 fold change; in assay [2] (dose 10.00 uM), −0.197 log2 fold change. Besides, the Dose.FC.CTG is 0.026 log2 fold change in the assay on ENR+CD organoids (dose 0.08 uM), 0.014 log2 fold change in the assay with ENR+CD organoids (dose 0.40 uM), −0.465 log2 fold change with ENR+CD organoids (dose 2.00 uM) and −0.498 log2 fold change in the assay on ENR+CD organoids (dose 10.00 uM).
Regarding `CCC(CC)(NC(=O)C(C)C)C(=O)N[C@@H](CCCN=C(N)N)C(=O)NC1(C(=O)NC(c2ccc(F)cc2)c2ccc(F)cc2)CCCC1` [MM-102], the Z.LYZ.NS was −0.220 in assay [1] (dose 0.08 uM), −0.090 in assay [1] (dose 0.40 uM), 0.230 in assay [1] (dose 2.00 uM) and −1.424 in assay [1] (dose 10.00 uM). Besides, the Dose.FC.LYZ.NS in assay [1] (dose 0.08 uM) is reported as −0.025 log2 fold change; in assay [1] (dose 0.40 uM), −0.010 log2 fold change; in assay [1] (dose 2.00 uM), 0.026 log2 fold change; in assay [1] (dose 10.00 uM), −0.164 log2 fold change. In addition, the Dose.FC.LYZ.S is given as −0.027 log2 fold change in assay [2] (dose 0.08 uM), −0.001 log2 fold change in assay [2] (dose 0.40 uM), −0.035 log2 fold change in assay [2] (dose 2.00 uM) and −0.194 log2 fold change in assay [2] (dose 10.00 uM). In addition, the Z.CTG in the assay on ENR+CD organoids (dose 0.08 uM) is given as −0.489; in the assay with ENR+CD organoids (dose 0.40 uM) it was −0.315; in the assay on ENR+CD organoids (dose 2.00 uM), −0.557; in the assay with ENR+CD organoids (dose 10.00 uM), −0.964. Moreover, the Dose.FC.CTG with ENR+CD organoids (dose 0.08 uM) is recorded as −0.205 log2 fold change; with ENR+CD organoids (dose 0.40 uM), −0.132 log2 fold change; in the assay with ENR+CD organoids (dose 2.00 uM), −0.233 log2 fold change; in the assay on ENR+CD organoids (dose 10.00 uM) it was −0.403 log2 fold change.
With `S=C=Nc1cccc(NC(=S)NCCCCNC(=S)Nc2cccc(N=C=S)c2)c1` [MRS 2578], the Z.LYZ.NS in assay [1] (dose 0.08 uM) worked out at 1.011; in assay [1] (dose 0.40 uM), 0.311; in assay [1] (dose 2.00 uM) it was 0.270; in assay [1] (dose 10.00 uM), 0.276. The Dose.FC.LYZ.NS in assay [1] (dose 0.08 uM) is listed as 0.116 log2 fold change; in assay [1] (dose 0.40 uM), 0.036 log2 fold change; in assay [1] (dose 2.00 uM), 0.031 log2 fold change; in assay [1] (dose 10.00 uM), 0.032 log2 fold change. Further, the Dose.FC.LYZ.S is recorded as 0.095 log2 fold change in assay [2] (dose 0.08 uM), 0.067 log2 fold change in assay [2] (dose 0.40 uM), 0.023 log2 fold change in assay [2] (dose 2.00 uM) and 0.013 log2 fold change in assay [2] (dose 10.00 uM). Moreover, the Z.CTG in the assay with ENR+CD organoids (dose 0.08 uM) was −0.339; in the assay on ENR+CD organoids (dose 0.40 uM), 0.146; in the assay on ENR+CD organoids (dose 2.00 uM), −0.381; with ENR+CD organoids (dose 10.00 uM), −0.544. Also, the Dose.FC.CTG with ENR+CD organoids (dose 0.08 uM) was −0.142 log2 fold change; in the assay on ENR+CD organoids (dose 0.40 uM), 0.061 log2 fold change; in the assay with ENR+CD organoids (dose 2.00 uM), −0.159 log2 fold change; in the assay on ENR+CD organoids (dose 10.00 uM) it was −0.228 log2 fold change.
Take `COc1cc(-n2c(=S)[nH]c3ccccc3c2=O)c(Cl)cc1Cl` [Mdivi-1]: the “Dose.FC.LYZ.NS (log2 fold change)” value in assay [1] (dose 0.08 uM) is on record as 0.177; in assay [1] (dose 0.40 uM), 0.156; in assay [1] (dose 2.00 uM) it was −0.022; in assay [1] (dose 10.00 uM) it was −0.268. Also, the “Z.LYZ.NS (standard z score)” value in assay [1] (dose 0.08 uM) is reported as 1.537; in assay [1] (dose 0.40 uM), 1.358; in assay [1] (dose 2.00 uM), −0.194; in assay [1] (dose 10.00 uM) it was −2.333. Also, the “Dose.FC.LYZ.S (log2 fold change)” value in assay [2] (dose 0.08 uM) was 0.079; in assay [2] (dose 0.40 uM) it was 0.030; in assay [2] (dose 2.00 uM) it was −0.048; in assay [2] (dose 10.00 uM) it was −0.411. The “Dose.FC.CTG (log2 fold change)” value in the assay with ENR+CD organoids (dose 0.08 uM) was 0.008; with ENR+CD organoids (dose 0.40 uM), −0.031; with ENR+CD organoids (dose 2.00 uM) it was −0.112; in the assay with ENR+CD organoids (dose 10.00 uM), −0.527. The “Z.CTG (standard z score)” value in the assay on ENR+CD organoids (dose 0.08 uM) is on record as 0.019; with ENR+CD organoids (dose 0.40 uM), −0.074; in the assay on ENR+CD organoids (dose 2.00 uM), −0.267; in the assay with ENR+CD organoids (dose 10.00 uM), −1.259.
`CC12CC3CC(C)(C1)CC(N)(C3)C2` [Memantine HCl]: the “Dose.FC.LYZ.NS (log2 fold change)” value in assay [1] (dose 0.08 uM) is listed as 0.069; in assay [1] (dose 0.40 uM), 0.004; in assay [1] (dose 2.00 uM) it was 0.106; in assay [1] (dose 10.00 uM) it was −0.047. Also, the “Z.LYZ.NS (standard z score)” value is given as 0.598 in assay [1] (dose 0.08 uM), 0.032 in assay [1] (dose 0.40 uM), 0.919 in assay [1] (dose 2.00 uM) and −0.411 in assay [1] (dose 10.00 uM). For the same compound, the “Dose.FC.LYZ.S (log2 fold change)” value in assay [2] (dose 0.08 uM) is 0.091; in assay [2] (dose 0.40 uM), 0.017; in assay [2] (dose 2.00 uM), 0.051; in assay [2] (dose 10.00 uM), −0.021. In addition, the “Dose.FC.CTG (log2 fold change)” value is on record as 0.083 in the assay with ENR+CD organoids (dose 0.08 uM), 0.072 with ENR+CD organoids (dose 0.40 uM), −0.007 with ENR+CD organoids (dose 2.00 uM) and 0.077 in the assay with ENR+CD organoids (dose 10.00 uM).
